Experiments:
EGFR-wt [1] = target: T1, EGFR-wt (Homo sapiens, UniProt P00533); assay: Kinetic characterization (Ki, kinact), EGFR-wt
EGFR-L858R/T790M = EGFR-L858R/T790M (Homo sapiens, UniProt P00533, L858R/T790M); assay: Kinetic characterization (Ki, kinact), EGFR-L858R/T790M
[2] = system: EGFR and downstream cascade phosphorylation in A431 cells; assay: Western blot analysis in A431 cells; type: cell-based; details: 1 h inhibitor then EGF stimulation
Protocol: (§1) and incubated at 37 °C and 5% CO2. On day 2 cells were starved over night with media containing 0.5% FBS to be incubated on day 3 for 1 h with EGFR inhibitors following an additional 30 min of EGF stimulation at 50 ng/mL. The media was discarded and cells were washed once with DPBS
(§2) 1x. Using 100 μL per well of lysis buffer, cells were then scraped off and lysed while rotating (Stuart Scientific, Staffordshire, UK) for 1 h at 4 °C. […] Supernatant was transferred into new tube and protein concentrations were determined with the Bio-Rad Protein Assay (Bio-Rad Laboratories, Hercules, CA). […]
(§3) captured and quantified using a FUJI LAS3000 system with Science Lab 2001 ImageGauge 4.0 software (Fujifilm Medial Systems, Stamford CT, USA). […]
(§4) glycerol, 1 mM TCEP, pH 8) on ice for 1 h. We analyzed the aliquots by ESI-MS using an Thermo Fisher Scientific Dionex UltiMate 3000 HPLC system connected to a Thermo Fisher Scientific Velos Pro (2d ion trap). Therefore, 5 μL of sample was injected and separated using a Vydac 214TP C4 5 μm column (150 mm x 2.1 mm) starting at 20% of solvent B for 5 minutes followed by a gradient up to 90% of solvent B over 14 min with a flow rate of 210 μL/min with 0.1% TFA in water as solvent A and 0.1% TFA in MeCN as solvent B. A mass range of 700 to 2000 m/z was scanned and raw data was deconvoluted and analyzed with MagTran software (Z.Q. Zhang, A.G. […]

[3] = system: EGFR and downstream cascade phosphorylation in H1975 cells; assay: Western blot analysis in H1975 cells; type: cell-based; details: 1 h inhibitor then EGF stimulation
Protocol: as §1, §2, §3, §4

100 kinases = assay: Kinase selectivity profiling with 100 kinases (SelectScreen); type: biochemical; details: screening concentration 1 μM
Protocol: (§5) Kinase profiling of compound 17a at a concentration of 1 µM generated with the SelectScreen® Profiling Service from Life Technologies.
(§6) Figure S2. Kinase profiling of compound 17a, Illustration as waterfall plot. 9 Kinases harboring a Cysteine isostructural to Cys797 in EGFR are highlighted
(§7) Kinase % inhibition Kinase % inhibition […]
(§8) aValues are the mean ± SD of one measurement in duplicates; bKinases harboring a Cysteine isostructural to Cys797 […]
(§9) (1 picture or pasted object on this page, not shown here)

EGFR-wt [4] = target: T1, EGFR-wt; assay: SelectScreen kinase profiling, EGFR-wt; type: biochemical; details: mean ± SD of one measurement in duplicates
Protocol: as §5, §6, §7, §8, §9

ABL1-G250E = ABL1-G250E (Homo sapiens, UniProt P00519, G250E); assay: SelectScreen kinase profiling, ABL1-G250E; type: biochemical; details: mean ± SD of one measurement in duplicates
Protocol: as §5, §6, §7, §8, §9

EGFR-L861Q = EGFR-L861Q (Homo sapiens, UniProt P00533, L861Q); assay: SelectScreen kinase profiling, EGFR-L861Q; type: biochemical; details: mean ± SD of one measurement in duplicates
Protocol: as §5, §6, §7, §8, §9

SRC-N1 = SRC-N1 (Homo sapiens, UniProt P12931); assay: SelectScreen kinase profiling, SRC-N1; type: biochemical; details: mean ± SD of one measurement in duplicates
Protocol: as §5, §6, §7, §8, §9

ROS1 = ROS1 (Homo sapiens, UniProt P08922); assay: SelectScreen kinase profiling, ROS1; type: biochemical; details: mean ± SD of one measurement in duplicates
Protocol: as §5, §6, §7, §8, §9

EGFR-T790M = EGFR-T790M (Homo sapiens, UniProt P00533, T790M); assay: SelectScreen kinase profiling, EGFR-T790M; type: biochemical; details: mean ± SD of one measurement in duplicates
Protocol: as §5, §6, §7, §8, §9

BMX = BMX (Homo sapiens, UniProt P51813); assay: SelectScreen kinase profiling, BMX; type: biochemical; details: mean ± SD of one measurement in duplicates
Protocol: as §5, §6, §7, §8, §9

ABL2 = ABL2 (Homo sapiens, UniProt P42684); assay: SelectScreen kinase profiling, ABL2; type: biochemical; details: mean ± SD of one measurement in duplicates
Protocol: as §5, §6, §7, §8, §9

LCK = LCK (Homo sapiens, UniProt P06239); assay: SelectScreen kinase profiling, LCK; type: biochemical; details: mean ± SD of one measurement in duplicates
Protocol: as §5, §6, §7, §8, §9

TXK = TXK (Homo sapiens, UniProt P42681); assay: SelectScreen kinase profiling, TXK; type: biochemical; details: mean ± SD of one measurement in duplicates
Protocol: as §5, §6, §7, §8, §9

EPHA1 = EPHA1 (Homo sapiens, UniProt P21709); assay: SelectScreen kinase profiling, EPHA1; type: biochemical; details: mean ± SD of one measurement in duplicates
Protocol: as §5, §6, §7, §8, §9

T1 sequence (P00533 25-1210): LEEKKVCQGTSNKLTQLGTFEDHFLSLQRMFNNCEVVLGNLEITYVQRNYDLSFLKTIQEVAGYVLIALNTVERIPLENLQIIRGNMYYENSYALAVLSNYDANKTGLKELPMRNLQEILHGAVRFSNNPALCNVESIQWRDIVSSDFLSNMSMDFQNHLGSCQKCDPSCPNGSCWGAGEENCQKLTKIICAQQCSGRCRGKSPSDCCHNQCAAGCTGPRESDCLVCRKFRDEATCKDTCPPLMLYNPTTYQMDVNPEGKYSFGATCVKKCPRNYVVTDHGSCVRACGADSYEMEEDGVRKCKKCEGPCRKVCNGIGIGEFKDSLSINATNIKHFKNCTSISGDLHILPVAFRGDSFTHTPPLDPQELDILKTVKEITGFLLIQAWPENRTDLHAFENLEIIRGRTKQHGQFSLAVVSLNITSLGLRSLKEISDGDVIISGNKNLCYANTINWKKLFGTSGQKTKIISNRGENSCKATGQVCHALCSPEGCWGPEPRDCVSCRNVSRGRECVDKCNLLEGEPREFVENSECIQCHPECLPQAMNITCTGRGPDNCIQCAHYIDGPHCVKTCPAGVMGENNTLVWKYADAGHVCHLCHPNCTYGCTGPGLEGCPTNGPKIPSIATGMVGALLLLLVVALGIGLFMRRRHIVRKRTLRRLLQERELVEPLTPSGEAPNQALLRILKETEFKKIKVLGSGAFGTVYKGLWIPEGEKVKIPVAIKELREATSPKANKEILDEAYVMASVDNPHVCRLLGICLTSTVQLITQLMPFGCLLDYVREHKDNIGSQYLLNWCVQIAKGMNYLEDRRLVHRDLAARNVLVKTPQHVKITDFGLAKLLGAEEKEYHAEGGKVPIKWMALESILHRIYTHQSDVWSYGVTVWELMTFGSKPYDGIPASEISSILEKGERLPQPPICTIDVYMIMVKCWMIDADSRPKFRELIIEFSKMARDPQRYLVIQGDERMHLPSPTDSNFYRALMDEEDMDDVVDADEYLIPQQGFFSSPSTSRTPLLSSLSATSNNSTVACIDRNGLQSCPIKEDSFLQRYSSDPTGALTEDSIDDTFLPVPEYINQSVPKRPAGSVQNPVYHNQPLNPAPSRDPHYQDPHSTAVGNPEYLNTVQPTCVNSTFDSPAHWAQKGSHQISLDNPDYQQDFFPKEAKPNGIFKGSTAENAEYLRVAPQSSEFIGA
Chain of EGFR-L858R/T790M (P00533 25-1210 T790M/L858R): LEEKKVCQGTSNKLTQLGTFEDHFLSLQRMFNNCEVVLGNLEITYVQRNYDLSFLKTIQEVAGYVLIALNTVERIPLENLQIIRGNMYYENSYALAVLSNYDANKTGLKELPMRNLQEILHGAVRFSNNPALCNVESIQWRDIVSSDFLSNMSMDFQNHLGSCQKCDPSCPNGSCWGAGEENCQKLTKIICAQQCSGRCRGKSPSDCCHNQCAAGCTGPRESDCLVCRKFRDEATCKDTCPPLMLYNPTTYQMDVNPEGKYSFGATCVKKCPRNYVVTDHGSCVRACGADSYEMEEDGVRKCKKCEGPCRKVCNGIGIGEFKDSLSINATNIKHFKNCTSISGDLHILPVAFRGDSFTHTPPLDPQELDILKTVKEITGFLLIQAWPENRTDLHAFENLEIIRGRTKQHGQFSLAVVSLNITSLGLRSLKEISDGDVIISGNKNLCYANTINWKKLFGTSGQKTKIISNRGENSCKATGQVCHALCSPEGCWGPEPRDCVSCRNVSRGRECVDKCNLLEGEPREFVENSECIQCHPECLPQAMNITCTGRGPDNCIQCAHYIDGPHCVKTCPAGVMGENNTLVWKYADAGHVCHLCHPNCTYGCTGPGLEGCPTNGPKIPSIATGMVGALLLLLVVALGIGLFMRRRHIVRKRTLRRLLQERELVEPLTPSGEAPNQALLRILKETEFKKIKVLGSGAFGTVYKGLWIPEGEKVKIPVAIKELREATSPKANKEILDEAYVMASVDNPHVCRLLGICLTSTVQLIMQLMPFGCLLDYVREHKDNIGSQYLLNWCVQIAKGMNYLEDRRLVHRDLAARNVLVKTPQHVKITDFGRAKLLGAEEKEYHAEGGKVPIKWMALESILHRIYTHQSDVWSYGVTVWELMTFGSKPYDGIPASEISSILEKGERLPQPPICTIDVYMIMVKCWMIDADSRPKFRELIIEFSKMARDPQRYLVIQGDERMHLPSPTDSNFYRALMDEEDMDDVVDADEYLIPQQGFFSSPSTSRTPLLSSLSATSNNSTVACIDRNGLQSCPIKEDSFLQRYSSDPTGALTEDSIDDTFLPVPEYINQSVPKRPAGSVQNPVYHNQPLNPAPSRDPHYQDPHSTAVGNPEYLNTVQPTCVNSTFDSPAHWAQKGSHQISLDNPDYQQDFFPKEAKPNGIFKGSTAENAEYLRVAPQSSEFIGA
Chain of TXK (P42681 whole entry): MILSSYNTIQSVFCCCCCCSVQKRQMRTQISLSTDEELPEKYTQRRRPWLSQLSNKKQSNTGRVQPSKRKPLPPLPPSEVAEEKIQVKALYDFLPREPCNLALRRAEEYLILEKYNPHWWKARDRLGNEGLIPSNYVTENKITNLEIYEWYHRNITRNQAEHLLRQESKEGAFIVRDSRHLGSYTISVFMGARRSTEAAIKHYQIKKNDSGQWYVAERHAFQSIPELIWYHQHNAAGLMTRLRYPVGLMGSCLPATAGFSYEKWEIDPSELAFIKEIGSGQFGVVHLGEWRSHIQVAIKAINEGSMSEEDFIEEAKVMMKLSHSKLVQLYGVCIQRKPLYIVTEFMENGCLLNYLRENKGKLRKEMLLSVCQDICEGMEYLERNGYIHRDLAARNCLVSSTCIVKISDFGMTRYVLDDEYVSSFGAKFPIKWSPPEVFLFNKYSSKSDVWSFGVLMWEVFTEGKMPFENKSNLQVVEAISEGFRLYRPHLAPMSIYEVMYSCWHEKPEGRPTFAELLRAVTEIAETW
Chain of EPHA1 (P21709 26-976): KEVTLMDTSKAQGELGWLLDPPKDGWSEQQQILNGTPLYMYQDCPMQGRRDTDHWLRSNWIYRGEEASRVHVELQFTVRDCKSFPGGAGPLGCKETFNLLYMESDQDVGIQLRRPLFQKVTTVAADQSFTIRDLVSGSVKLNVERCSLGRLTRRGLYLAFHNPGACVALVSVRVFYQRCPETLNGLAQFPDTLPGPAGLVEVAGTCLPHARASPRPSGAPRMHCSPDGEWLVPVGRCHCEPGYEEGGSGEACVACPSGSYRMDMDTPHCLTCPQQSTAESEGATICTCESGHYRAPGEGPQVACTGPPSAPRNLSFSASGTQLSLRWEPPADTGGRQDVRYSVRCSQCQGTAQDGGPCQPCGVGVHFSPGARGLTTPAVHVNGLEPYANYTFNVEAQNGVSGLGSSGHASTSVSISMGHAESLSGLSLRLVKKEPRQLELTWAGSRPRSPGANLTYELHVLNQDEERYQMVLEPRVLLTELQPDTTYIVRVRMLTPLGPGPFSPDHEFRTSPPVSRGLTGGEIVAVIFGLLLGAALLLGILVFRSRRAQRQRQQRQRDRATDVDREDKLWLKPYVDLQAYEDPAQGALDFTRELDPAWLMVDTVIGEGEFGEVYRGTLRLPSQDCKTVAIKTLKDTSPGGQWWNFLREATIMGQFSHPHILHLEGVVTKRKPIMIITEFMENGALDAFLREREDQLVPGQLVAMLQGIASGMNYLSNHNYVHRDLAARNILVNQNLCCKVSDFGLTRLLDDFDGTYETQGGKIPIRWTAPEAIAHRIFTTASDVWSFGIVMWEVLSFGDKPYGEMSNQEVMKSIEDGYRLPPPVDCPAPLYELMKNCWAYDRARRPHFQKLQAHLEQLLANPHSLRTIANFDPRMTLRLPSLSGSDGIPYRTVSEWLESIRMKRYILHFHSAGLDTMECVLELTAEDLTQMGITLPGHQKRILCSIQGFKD
Chain of LCK (P06239 whole entry): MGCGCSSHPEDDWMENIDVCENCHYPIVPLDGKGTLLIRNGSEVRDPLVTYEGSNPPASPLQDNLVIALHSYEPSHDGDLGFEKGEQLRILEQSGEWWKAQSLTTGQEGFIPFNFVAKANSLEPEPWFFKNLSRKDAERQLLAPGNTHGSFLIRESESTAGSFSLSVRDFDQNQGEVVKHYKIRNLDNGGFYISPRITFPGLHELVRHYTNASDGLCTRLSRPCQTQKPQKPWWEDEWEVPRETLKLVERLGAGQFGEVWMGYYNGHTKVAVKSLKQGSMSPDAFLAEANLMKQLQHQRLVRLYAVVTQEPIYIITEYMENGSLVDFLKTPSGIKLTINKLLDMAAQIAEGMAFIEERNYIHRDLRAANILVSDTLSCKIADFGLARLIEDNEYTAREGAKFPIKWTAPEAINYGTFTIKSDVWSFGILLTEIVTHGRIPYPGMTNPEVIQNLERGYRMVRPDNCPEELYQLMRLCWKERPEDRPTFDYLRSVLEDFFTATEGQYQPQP
Chain of EGFR-L861Q (P00533 668-1210 L861Q limits assumed): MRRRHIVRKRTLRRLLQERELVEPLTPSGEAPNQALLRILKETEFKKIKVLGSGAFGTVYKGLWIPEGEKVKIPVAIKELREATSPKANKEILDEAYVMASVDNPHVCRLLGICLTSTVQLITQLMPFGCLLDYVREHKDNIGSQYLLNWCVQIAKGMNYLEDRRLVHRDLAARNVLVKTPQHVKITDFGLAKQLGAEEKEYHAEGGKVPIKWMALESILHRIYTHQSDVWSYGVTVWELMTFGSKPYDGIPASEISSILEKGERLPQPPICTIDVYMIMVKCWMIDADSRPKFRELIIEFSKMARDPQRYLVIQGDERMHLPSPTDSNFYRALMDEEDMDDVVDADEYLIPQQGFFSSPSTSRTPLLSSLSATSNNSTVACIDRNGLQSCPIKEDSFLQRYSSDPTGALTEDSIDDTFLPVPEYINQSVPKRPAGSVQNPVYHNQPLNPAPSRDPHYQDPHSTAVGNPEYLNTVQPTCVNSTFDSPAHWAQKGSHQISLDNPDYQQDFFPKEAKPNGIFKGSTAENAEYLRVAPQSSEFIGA

| Ki (EGFR-wt [1]) [nM] | kinact (EGFR-wt [1]) [s⁻¹] | kinact/KI (EGFR-wt [1]) [M⁻¹ s⁻¹] | Ki (EGFR-L858R/T790M) [nM] | kinact (EGFR-L858R/T790M) [s⁻¹] | kinact/KI (EGFR-L858R/T790M) [M⁻¹ s⁻¹] | kinases with inhibitory activity of ≥70% (100 kinases) | inhibition at 1 µM (EGFR-wt [4]) [%] | inhibition at 1 µM (ABL1-G250E) [%] | inhibition at 1 µM (EGFR-L861Q) [%] | inhibition at 1 µM (SRC-N1) [%] | inhibition at 1 µM (ROS1) [%] | inhibition at 1 µM (EGFR-T790M) [%] | inhibition at 1 µM (BMX) [%] | inhibition at 1 µM (ABL2) [%] | inhibition at 1 µM (LCK) [%] | inhibition at 1 µM (TXK) [%] | inhibition at 1 µM (EPHA1) [%] | Compound | concentration at which phosphorylation of EGFR and downstream proteins was reduced [2] | concentration at which phosphorylation of EGFR and downstream proteins was reduced/inhibited [3] |
| --- | --- | --- | --- | --- | --- | --- | --- | --- | --- | --- | --- | --- | --- | --- | --- | --- | --- | --- | --- | --- |
| 0.4 ± 0.1 | 0.000833 | 1.98e+06 ± 220000 | 0.4 ± 0.1 | 0.00283 | 8.08e+06 ± 770000 | – | – | – | – | – | – | – | – | – | – | – | – | C=CC(=O)Nc1cccc(-c2c(-c3ccc(N4CCN(C)CC4)cc3)[nH]c3ncnc(OCC(C)C)c23)c1 [Compound 19h] | – | – |
| – | – | – | – | – | – | 21 kinases and 8 mutant variants | 97 ± 2 | 96 | 96 ± 2 | 95 ± 1 | 92 | 89 ± 2 | 89 ± 1 | 86 | 80 | 77 | 72 ± 2 | C=CC(=O)Nc1cccc(-c2c(-c3ccc(CN4CCN(C)CC4)cc3)[nH]c3ncnc(OC)c23)c1 [Compound 17a] | about 1 μM | around 100 nM |
